Patent publication US11000033B2, “Ketone or oxime compound, and herbicide” (NISSAN CHEMICAL CORPORATION, priority 2014, dated 2021)

Experiments:
Format in all cases: in vivo
Apera spica-venti [1] = assay: Test Example 4: herbicidal effect by soil treatment (symbol L); settings: application herbicide amount 320 g/ha
Summary of the method: (§1)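 Seeds were sown in sterilized diluvial soil, covered with about 1.5 cm of soil, and the soil surface was sprayed with a water-diluted emulsion of the compound at a predetermined rate. Plants grew in a greenhouse at 25° C. to 30° C.; effects were scored visually 3 weeks after application.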

rapeseed = assay: Test Example 4: effect on crop by soil treatment (symbol g); settings: application herbicide amount 320 g/ha
Summary of the method: (§2)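 Crop seed is sown in spots together with several weed species in a box of sterilized diluvial soil. It is covered by about 1.5 cm of soil and kept in a greenhouse held between 25° C. and 30° C.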

Monochoria vaginalis = assay: Test Example 2: herbicidal activity, application during weed generation in submerged conditions (symbol C); settings: Table 23; application herbicide amount 320 g/ha; grade 0-5 by criteria of Test Example 1
Summary of the method: (§3)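 Steps: fill pots with alluvial soil; add water to 4 cm depth; co-sow the three weeds; grow at 25° C. to 30° C. under glass; at 1–2 leaves, dose the floodwater with diluted emulsion; rate damage visually after 3 weeks.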

Chenopodium album [2] = assay: Test Example 4: herbicidal effect by soil treatment (symbol O); settings: application herbicide amount 320 g/ha
Summary of the method: as §1

Apera spica-venti [3] = assay: Test Example 5: herbicidal effect by foliage application, plastic box (symbol L); settings: 320 g/ha, 3 weeks after application
Summary of the method: (§4)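 Leaf-applied emulsion, water-diluted to a preset herbicide dose, on two-week-old seedlings raised in a 25° C. to 30° C. greenhouse; injury rated at 3 weeks using earlier criteria.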

Cyperus difformis = assay: Test Example 3: herbicidal effect by foliage application, Wagner pot (symbol E); settings: application herbicide amount 320 g/ha
Summary of the method: (§5)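 Post-emergence, paddy-type test: seedlings 14 d old in shallow-flooded (0.1–0.5 cm) alluvial soil, 25–30 °C greenhouse. Emulsion diluted to target rate, sprayed on leaves. Read-out: visual effect on each species at 3 weeks, per set criteria.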

[4] = system: Echinochloa crus-galli var. crus-galli; assay: Test Example 4: herbicidal effect by soil treatment (symbol H); settings: application herbicide amount 320 g/ha
Summary of the method: as §1

beet = assay: Test Example 4: effect on crop by soil treatment (symbol f); settings: application herbicide amount 320 g/ha
Summary of the method: as §2

[5] = system: Echinochloa crus-galli var. crus-galli; assay: Test Example 3: herbicidal effect by foliage application, Wagner pot (symbol H); settings: application herbicide amount 320 g/ha
Summary of the method: as §5

Chenopodium album [6] = assay: Test Example 5: herbicidal effect by foliage application, plastic box (symbol O); settings: 320 g/ha, 3 weeks after application
Summary of the method: as §4

Leptochloa chinensis = assay: Test Example 3: herbicidal effect by foliage application, Wagner pot (symbol D); settings: application herbicide amount 320 g/ha
Summary of the method: as §5

Abutilon theophrasti = assay: Test Example 5: herbicidal effect by foliage application, plastic box (symbol M); settings: 320 g/ha, 3 weeks after application
Summary of the method: as §4

Stellaria media = assay: Test Example 5: herbicidal effect by foliage application, plastic box (symbol P); settings: 320 g/ha, 3 weeks after application
Summary of the method: as §4

transplanted rice plant = assay: Test Example 1: effect on crop, application before weed generation in submerged conditions (symbol a); settings: application herbicide amount 320 g/ha
Summary of the method: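 Rice at 2.5 leaf stage transplanted into submerged soil (4 cm depth) sown with three weed species; herbicide applied before weed emergence.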

Scirpus juncoides = assay: Test Example 2: herbicidal activity, application during weed generation in submerged conditions (symbol B); settings: Table 23; application herbicide amount 320 g/ha; grade 0-5 by criteria of Test Example 1
Summary of the method: as §3

[7] = system: directly sowed rice plant; assay: Test Example 3: effect on crop by foliage application, Wagner pot (symbol b); settings: application herbicide amount 320 g/ha
Summary of the method: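 Plants are raised from seed in flooded paddy conditions: water stands 0.1–0.5 cm over alluvial soil, and the pot is kept in a greenhouse at 25–30 °C. Species sown are barnyardgrass (E. crus-galli var. crus-galli), Leptochloa chinensis, Cyperus difformis and rice.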

| SMILES | Herbicidal effect grade, L: Apera spica-venti (Apera spica-venti [1]) | Effect on crop grade, g: rapeseed (rapeseed) | Herbicidal effect grade, C: Monochoria vaginalis (Monochoria vaginalis) | Herbicidal effect grade, O: Chenopodium album (Chenopodium album [2]) | L: Apera spica-venti, herbicidal effect (criteria of Test Example 1) (Apera spica-venti [3]) | herbicidal effect on E, grade 0-5 (Cyperus difformis) | Herbicidal effect grade, H: Echinochloa crus-galli var. crus-galli [4] | Effect on crop grade, f: beet (beet) | herbicidal effect on H (Echinochloa crus-galli var. crus-galli), grade 0-5 [5] | O: Chenopodium album, herbicidal effect (criteria of Test Example 1) (Chenopodium album [6]) | herbicidal effect on D (Leptochloa chinensis), grade 0-5 (Leptochloa chinensis) | M: Abutilon theophrasti, herbicidal effect (criteria of Test Example 1) (Abutilon theophrasti) | P: Stellaria media, herbicidal effect (criteria of Test Example 1) (Stellaria media) | Effect grade on crop, a: transplanted rice plant (transplanted rice plant) | Herbicidal effect grade, B: Scirpus juncoides (Scirpus juncoides) | effect on crop b (directly sowed rice plant), grade 0-5 [7] |
| --- | --- | --- | --- | --- | --- | --- | --- | --- | --- | --- | --- | --- | --- | --- | --- | --- |
| COc1ccc(-c2cc(C)c(C3=C(O)CC(CC(C)=O)C3=O)c(C)c2)cc1 (stereo not shown) [7-006] | 0 (Herbicidal ratio of 5% or lower (almost no effect)) | 0 (Herbicidal ratio of 5% or lower (almost no effect)) | 0 (Herbicidal ratio of 5% or lower (almost no effect)) | 0 (Herbicidal ratio of 5% or lower (almost no effect)) | 4 (Herbicidal ratio of 70% or higher and lower than 90%) | 0 (Herbicidal ratio of 5% or lower (almost no effect)) | 0 (Herbicidal ratio of 5% or lower (almost no effect)) | 0 (Herbicidal ratio of 5% or lower (almost no effect)) | 5 (Herbicidal ratio of 90% or more (almost completely withered)) | 3 (Herbicidal ratio of 40% or higher and lower than 70%) | 5 (Herbicidal ratio of 90% or more (almost completely withered)) | 0 (Herbicidal ratio of 5% or lower (almost no effect)) | 0 (Herbicidal ratio of 5% or lower (almost no effect)) | 2 (Herbicidal ratio of 20% or higher and lower than 40%) | 0 (Herbicidal ratio of 5% or lower (almost no effect)) | 5 (Herbicidal ratio of 90% or more (almost completely withered)) |
| CC(=O)CC1CC(O)=C(c2c(C)cc(-c3ccc(C)cc3)cc2C)C1=O (stereo not shown) [7-007] | 5 (Herbicidal ratio of 90% or more (almost completely withered)) | 0 (Herbicidal ratio of 5% or lower (almost no effect)) | 3 (Herbicidal ratio of 40% or higher and lower than 70%) | 0 (Herbicidal ratio of 5% or lower (almost no effect)) | 5 (Herbicidal ratio of 90% or more (almost completely withered)) | 4 (Herbicidal ratio of 70% or higher and lower than 90%) | 5 (Herbicidal ratio of 90% or more (almost completely withered)) | 0 (Herbicidal ratio of 5% or lower (almost no effect)) | 5 (Herbicidal ratio of 90% or more (almost completely withered)) | 2 (Herbicidal ratio of 20% or higher and lower than 40%) | 5 (Herbicidal ratio of 90% or more (almost completely withered)) | 0 (Herbicidal ratio of 5% or lower (almost no effect)) | 0 (Herbicidal ratio of 5% or lower (almost no effect)) | 5 (Herbicidal ratio of 90% or more (almost completely withered)) | 0 (Herbicidal ratio of 5% or lower (almost no effect)) | 5 (Herbicidal ratio of 90% or more (almost completely withered)) |
| CC(=O)CC1CC(O)=C(c2c(C)cc(-c3ccc(Cl)cc3)cc2C)C1=O (stereo not shown) [7-008] | 5 (Herbicidal ratio of 90% or more (almost completely withered)) | 0 (Herbicidal ratio of 5% or lower (almost no effect)) | 0 (Herbicidal ratio of 5% or lower (almost no effect)) | 0 (Herbicidal ratio of 5% or lower (almost no effect)) | 5 (Herbicidal ratio of 90% or more (almost completely withered)) | 5 (Herbicidal ratio of 90% or more (almost completely withered)) | 5 (Herbicidal ratio of 90% or more (almost completely withered)) | 0 (Herbicidal ratio of 5% or lower (almost no effect)) | 5 (Herbicidal ratio of 90% or more (almost completely withered)) | 2 (Herbicidal ratio of 20% or higher and lower than 40%) | 5 (Herbicidal ratio of 90% or more (almost completely withered)) | 1 (Herbicidal ratio of 5% or higher and lower than 20%) | 1 (Herbicidal ratio of 5% or higher and lower than 20%) | 5 (Herbicidal ratio of 90% or more (almost completely withered)) | 0 (Herbicidal ratio of 5% or lower (almost no effect)) | 5 (Herbicidal ratio of 90% or more (almost completely withered)) |
| CC(=O)CC1CC(O)=C(c2c(C)cc(-c3ccccn3)cc2C)C1=O (stereo not shown) [7-012] | 0 (Herbicidal ratio of 5% or lower (almost no effect)) | 0 (Herbicidal ratio of 5% or lower (almost no effect)) | 0 (Herbicidal ratio of 5% or lower (almost no effect)) | 0 (Herbicidal ratio of 5% or lower (almost no effect)) | 0 (Herbicidal ratio of 5% or lower (almost no effect)) | 4 (Herbicidal ratio of 70% or higher and lower than 90%) | 5 (Herbicidal ratio of 90% or more (almost completely withered)) | 0 (Herbicidal ratio of 5% or lower (almost no effect)) | 5 (Herbicidal ratio of 90% or more (almost completely withered)) | 3 (Herbicidal ratio of 40% or higher and lower than 70%) | 5 (Herbicidal ratio of 90% or more (almost completely withered)) | 0 (Herbicidal ratio of 5% or lower (almost no effect)) | 3 (Herbicidal ratio of 40% or higher and lower than 70%) | 1 (Herbicidal ratio of 5% or higher and lower than 20%) | 0 (Herbicidal ratio of 5% or lower (almost no effect)) | 5 (Herbicidal ratio of 90% or more (almost completely withered)) |
